The text below walks through data of paper PMC7179419 (Molecules, 2020).

Series [1] deals with human lung adenocarcinoma (A549). Nature of the series: cells. The format is cell-based. The following applies: for IC50: A549, 72 h, read-out: A549 IC50; for SI (A549): SI = IC50 BALB/3T3 / IC50 A549. As to the method:
(§1) For a more accurate evaluation of cytotoxic activity, the effect on normal murine embryonic fibroblast cell line (BALB/3T3) was also tested according to the previously published procedure. Detailed information concerning antiproliferation assay can be found in Supplementary Materials. […]
(§2) The antiproliferative activity
(§3) Four human cancer cell lines and one murine normal cell line were used to evaluate […]
(§4) (A549), human breast adenocarcinoma (MCF-7), human colon adenocarcinoma cell lines sensitive and resistant to doxorubicin (LoVo), respectively, and normal murine embryonic fibroblast cell line (BALB/3T3). The BALB/3T3 cell line was purchased from the American Type Culture Collection (ATCC, Manassas, VA, USA), A549 and MCF-7 cell lines—from European Collection of Authenticated Cell Cultures (Salisbury, UK), LoVo cell line was purchased from the ATCC (ATCC, Manassas, VA, USA). All the cell lines are maintained in the Institute of Immunology and Experimental Therapy (IIET), Wroclaw, Poland. Human lung adenocarcinoma cell line was cultured in mixture of OptiMEM and RPMI 1640 (1:1) medium (IIET, Wroclaw, Poland), supplemented with 5% fetal bovine serum (GE Healthcare, Logan, UT, USA) and 2 mM L-glutamine (Sigma-Aldrich, Merck KGaA, Saint Louis, MO, USA). Human breast adenocarcinoma cell line was cultured in mixture of Eagle medium (IIET, Wroclaw, Poland), supplemented with 10% fetal bovine serum, 2 mM L-glutamine, 8 μg/mL insulin and 1% amino-acids (Sigma-Aldrich, Merck KGaA, Saint Louis, MO, USA).
(§5) Human colon adenocarcinoma cell lines were cultured in mixture of OptiMEM and RPMI 1640 (1:1) medium (IIET, Wroclaw, Poland), supplemented with 5% fetal bovine serum (GE Healthcare, Logan UT, USA), 2 mM L-glutamine, 1 mM sodium pyruvate (Sigma-Aldrich, Merck KGaA, Saint Louis, MO, USA). Murine embryonic fibroblast cells were cultured in […]
(§6) Dulbecco medium (Life Technologies Limited, Paisley, UK), supplemented with 10% fetal bovine serum (GE Healthcare, Logan, UT, USA) and 2 mM glutamine (Sigma-Aldrich, Merck KGaA, Saint Louis, MO, USA). All culture media contained antibiotics: 100 U/mL penicillin and 100 μg/mL streptomycin (Polfa-Tarchomin, Warsaw, Poland). All cell lines were cultured during entire experiment in humid atmosphere at 37 °C and 5% CO2. Cells were tested for mycoplasma contamination by mycoplasma detection kit for conventional […]
(§7) The procedure is repeated every year or in the case of less frequently used lines:
(§8) The Antiproliferative Assays In Vitro
(§9) Twenty-four hours before adding the tested compounds, all cell lines were seeded in 384-well plates (Sarstedt, Nümbrecht, Germany) in appropriate media with 1x103 or 1,5x103

Series [2] deals with human colon adenocarcinoma cell line (LoVo). Briefly: cells. The format is cell-based. The note with it: for IC50: LoVo, 72 h, read-out: LoVo IC50; for SI (LoVo): SI = IC50 BALB/3T3 / IC50 LoVo. As to the method: as §1, §2, §3, §4, §5, §6, §7, §8, §9
The test system of series [3] is human breast adenocarcinoma (MCF-7). Nature of the series: cells. The format is cell-based. The following applies: for IC50: read-out: MCF-7 IC50; for SI (MCF-7): SI = IC50 BALB/3T3 / IC50 MCF-7. Here is the method: as §1, §2, §3, §4, §5, §6, §7, §8, §9
In series [4] the test system is normal murine embryonic fibroblast cell line (BALB/3T3). Nature of the series: Antiproliferative assay in vitro (SRB, 72 h), BALB/3T3 normal cells. The format is cell-based. The following applies: normal cell line BALB/3T3, 72 h, mean ± SD. Here is the method:
as §1, §2, §3, §4, §5, §6, §7, §8, §9

Series [5] relates to tubulin. On the set-up: method as in PMID 2708333. The following applies: lower affinity relative to colchicine; cited from earlier work.

Where two headings read alike, the source gives them in different places.

Usually IC50 stands for the midpoint of a concentration-inhibition curve. On to `COc1cc2c(c(OC)c1OC)-c1ccc(=O)c(O)cc1[C@@H](NC(C)=O)CC2` [Compound 1, 10-demethylcolchicine], for which the IC50 in series [1] (Homo sapiens) is 13000 ± 1790 nM; in series [2] (Homo sapiens), 6000 ± 1880 nM; in series [3] (Homo sapiens, MCF7, 72 h) it was 11200 ± 2520 nM; in series [4] (Mus musculus), 10200 ± 960 nM. In addition, the “SI (A549)” value in series [1] turned out to be 0.79. The “SI (LoVo)” value in series [2] was determined as 1.71. Besides, the “SI (MCF-7)” value in series [3] is 0.91.

By melting point is commonly meant the temperature of the solid-liquid transition. `COc1cc2c(c(OC)c1OC)-c1ccc(OC(C)=O)c(=O)cc1[C@@H](NC(C)=O)CC2` [Compound 2a, Acetyl Ester of Colchiceine] displayed a melting point of 120 to 122 °C.

`COc1cc2c(c(OC)c1OC)-c1ccc(OC(=O)C(C)C)c(=O)cc1[C@@H](NC(C)=O)CC2` [Compound 2c, Isobutyryl Ester of Colchiceine] registered a melting point of 123 to 125 °C.

`COc1cc2c(c(O)c1OC)-c1ccc(SC)c(=O)cc1C(NC(C)=O)CC2` (stereo not drawn) [Compound 3, 1-demethylthiocolchicine]: the IC50 in series [1] (Homo sapiens) stood at 820 ± 20 nM; in series [2] (Homo sapiens) it was 110 ± 30 nM; in series [3] (Homo sapiens, MCF7, 72 h), 120 ± 50 nM; in series [4] (Mus musculus), 610 ± 140 nM. Moreover, the “SI (A549)” value in series [1] is reported as 0.74. In addition, the “SI (MCF-7)” value in series [3] was 4.92.

Turning to `COc1cc2c(c(OC(C)=O)c1OC)-c1ccc(SC)c(=O)cc1C(NC(C)=O)CC2` (stereo not drawn) [Compound 4a, Acetyl Ester of 1-demethylthiocolchicine], the IC50 in series [1] (Homo sapiens) turned out to be 480 ± 150 nM; in series [2] (Homo sapiens), 110 ± 20 nM; in series [3] (Homo sapiens, MCF7, 72 h) it was 100 ± 20 nM; in series [4] (Mus musculus), 650 ± 120 nM. Also, in series [1], the “SI (A549)” value worked out at 1.36.

As to `CCC(=O)Oc1c(OC)c(OC)cc2c1-c1ccc(SC)c(=O)cc1[C@@H](NC(C)=O)CC2` [Compound 4b, Propionyl Ester of 1-demethylthiocolchicine], the IC50 stood at 970 ± 40 nM in series [1] (Homo sapiens); 960 ± 130 nM in series [3] (Homo sapiens, MCF7, 72 h); 750 ± 100 nM in series [4] (Mus musculus).

Consider `COc1cc2c(c(OC(=O)C(C)C)c1OC)-c1ccc(SC)c(=O)cc1[C@@H](NC(C)=O)CC2` [Compound 4c, Isobutyryl Ester of 1-demethylthiocolchicine], for which the IC50 in series [1] (Homo sapiens) amounted to 890 ± 70 nM; in series [2] (Homo sapiens) it was 560 ± 60 nM; in series [3] (Homo sapiens, MCF7, 72 h) it was 860 ± 100 nM; in series [4] (Mus musculus) it was 710 ± 30 nM. The “SI (A549)” value in series [1] worked out at 0.80. Further, in series [2], the “SI (LoVo)” value is 1.27. Moreover, the “SI (MCF-7)” value in series [3] was 0.83.

With `COc1cc2c(c(OC(=O)c3ccccc3)c1OC)-c1ccc(SC)c(=O)cc1[C@@H](NC(C)=O)CC2` [Compound 4d, Benzyl Ester of 1-demethylthiocolchicine], the IC50 in series [1] (Homo sapiens) was 600 ± 310 nM; in series [2] (Homo sapiens), 100 ± 80 nM; in series [3] (Homo sapiens, MCF7, 72 h) it was 780 ± 220 nM; in series [4] (Mus musculus), 450 ± 230 nM. The “SI (A549)” value in series [1] was 0.75. For the same molecule, the “SI (LoVo)” value in series [2] is given as 4.71. Besides, the “SI (MCF-7)” value in series [3] is given as 0.58.

For the molecule `COC(=O)Oc1c(OC)c(OC)cc2c1-c1ccc(SC)c(=O)cc1C(NC(C)=O)CC2` (stereo not drawn) [Compound 4e, Methyl Carbonate of 1-demethylthiocolchicine], the IC50 in series [1] (Homo sapiens) was determined as 900 ± 90 nM; in series [2] (Homo sapiens), 430 ± 190 nM; in series [3] (Homo sapiens, MCF7, 72 h), 1020 ± 100 nM; in series [4] (Mus musculus), 780 ± 60 nM. Further, the “SI (A549)” value in series [1] was found to be 0.87. In series [2], the “SI (LoVo)” value stood at 1.84. Further, the “SI (MCF-7)” value in series [3] came to 0.77.

As for `CCOC(=O)Oc1c(OC)c(OC)cc2c1-c1ccc(SC)c(=O)cc1[C@@H](NC(C)=O)CC2` [Compound 4f, Ethyl Carbonate of 1-demethylthiocolchicine], the IC50 in series [1] (Homo sapiens) is 960 ± 130 nM; in series [2] (Homo sapiens), 790 ± 160 nM; in series [3] (Homo sapiens, MCF7, 72 h), 950 ± 200 nM; in series [4] (Mus musculus) it was 1030 ± 200 nM. For the same molecule, the “SI (A549)” value in series [1] is 1.08. Besides, the “SI (LoVo)” value in series [2] was determined as 1.31. The “SI (MCF-7)” value in series [3] is listed as 1.09.

Take `N.N.[Cl][Pt][Cl]` [cisplatin, reference compound]: the IC50 in series [1] (SRB, mean ± SD) worked out at 3600 ± 250 nM; in series [2] (SRB, mean ± SD) it was 3800 ± 280 nM; in series [3] (MCF-7, 72 h, SRB, mean ± SD), 3050 ± 670 nM; in series [4], 2910 ± 1830 nM. Besides, the “SI (A549)” value in series [1] came out at 0.81. Besides, the “SI (LoVo)” value in series [2] amounted to 0.77. In series [3], the “SI (MCF-7)” value is given as 0.95.

`COc1cccc2c1C(=O)c1c(O)c3c(c(O)c1C2=O)C[C@@](O)(C(=O)CO)C[C@@H]3O[C@H]1C[C@H](N)[C@H](O)[C@H](C)O1` [doxorubicin, reference compound]: the IC50 in series [1] (Homo sapiens, SRB, mean ± SD) is 160 ± 30 nM; in series [2] (Homo sapiens, SRB, mean ± SD), 80 ± 30 nM; in series [3] (Homo sapiens, MCF7, MCF-7, 72 h, SRB, mean ± SD), 150 ± 50 nM; in series [4] (Mus musculus) it was 40 ± 30 nM. The “SI (A549)” value in series [1] came to 0.25. For the same molecule, the “SI (LoVo)” value in series [2] is reported as 0.49. Besides, the “SI (MCF-7)” value in series [3] amounted to 0.26.

`COc1cc2c(c(OC)c1OC)-c1ccc(=O)c(OC)cc1[C@@H](NC(C)=O)CC2` [isocolchicine]: the “affinity for binding to tubulin, times lower than colchicine” value in series [5] is 500 times.
